Data set [1] in a line: Acute toxicity test in rats, single intravenous dose. It is filed as in vivo. The conditions noted are these: male, Sprague-Dawley, rat, in vivo, iv; rats, single i.v. dose, 14 days; read-out: Estimated LD50.
For data set [2], the system named is SD (Sprague Dawley) male rats. The description is as above. Particulars: for Number of dead animals/Number of drug-treated animals: 14 days after administration. It is filed as in vivo.
A short description of data set [3]: Stability test of oral preparation (powder in vial, HPLC). The conditions noted are these: for Residual amount: powder (solid).
Method: It was then stored at different temperatures (25° C., 40° C., 60° C.) for 6 months and the amount of active ingredients in powder were measured by HPLC.
A short description of data set [4]: physchem. The conditions noted are these: 25 °C, water, thermodynamic from solid. It is filed as physicochemical.
Data set [5] can be described thus: Stability test of injectable preparation (salt in WFI, HPLC).

Each structure is given as a SMILES string.

Regarding `O=C(O)c1cc(NCc2c(F)c(F)c(C(F)(F)F)c(F)c2F)ccc1O` [free base form, 2-hydroxy-5-(2,3,5,6-tetrafluoro-4-trifluoromethyl-benzylamino)benzoic acid], the LD50 at 14 day in data set [1] was 115 to 150 mg/kg. Also, the “Number of dead animals/Number of drug-treated animals” value in data set [2] (52 mg/kg single i.v. dose) was 0/7; in data set [2] (68 mg/kg single i.v. dose), 1/7; in data set [2] (89 mg/kg single i.v. dose), 3/7; in data set [2] (115 mg/kg single i.v. dose), 3/7; in data set [2] (150 mg/kg single i.v. dose), 6/7; in data set [2] (171 mg/kg single i.v. dose), 6/7. In addition, the “Number of dead animals/Number of drug-treated animals” value in data set [2] (184 mg/kg single i.v. dose) and in data set [2] (195 mg/kg single i.v. dose) was 7/7 each time.

Take `O=C([O-])c1cc(NCc2c(F)c(F)c(C(F)(F)F)c(F)c2F)ccc1O.[Li+]` [lithium salt, lithium 2-hydroxy-5-(2,3,5,6-tetrafluoro-4-trifluoromethyl-benzylamino)benzoate]: the Residual amount in data set [3] (25° C., day 0) is listed as 98.56 ± 0.89%; in data set [3] (25° C., day 7), 98.32 ± 0.32%; in data set [3] (25° C., day 14), 97.69 ± 2.58%; in data set [3] (25° C., day 21), 96.87 ± 1.64%; in data set [3] (25° C., day 30), 95.01 ± 1.10%; in data set [3] (25° C., day 60) it was 94.78 ± 8.09%. Also, the Residual amount amounted to 92.69 ± 1.03% in data set [3] (25° C., day 120); 90.85 ± 1.61% in data set [3] (25° C., day 180); 98.56 ± 0.89% in data set [3] (40° C., day 0); 98.16 ± 0.09% in data set [3] (40° C., day 7); 96.18 ± 3.28% in data set [3] (40° C., day 14); 96.02 ± 2.49% in data set [3] (40° C., day 21). The Residual amount in data set [3] (40° C., day 30) is 95.96 ± 0.89%; in data set [3] (40° C., day 60), 95.70 ± 6.88%; in data set [3] (40° C., day 120), 95.58 ± 1.38%; in data set [3] (40° C., day 180), 95.40 ± 2.37%; in data set [3] (60° C., day 0) it was 98.56 ± 0.89%; in data set [3] (60° C., day 7), 97.49 ± 0.80%. In addition, the Residual amount in data set [3] (60° C., day 14) turned out to be 96.45 ± 2.80%; in data set [3] (60° C., day 21), 95.87 ± 2.09%; in data set [3] (60° C., day 30), 95.69 ± 2.97%; in data set [3] (60° C., day 60), 95.51 ± 1.99%; in data set [3] (60° C., day 120), 94.84 ± 0.56%; in data set [3] (60° C., day 180), 92.48 ± 3.14%. This compound showed a solubility at 48 h in data set [4] of 500 mg/mL.

`O=C([O-])c1cc(NCc2c(F)c(F)c(C(F)(F)F)c(F)c2F)ccc1O.[K+]` [potassium salt, potassium 2-hydroxy-5-(2,3,5,6-tetrafluoro-4-trifluoromethyl-benzylamino)benzoate]: the “stability in powder form” value in data set [3] (high temperatures) is listed as “relatively stable in high temperatures”. Moreover, the Residual amount in data set [3] (25° C., day 0) amounted to 100.43 ± 0.30%; in data set [3] (25° C., day 30), 100.31 ± 0.25%; in data set [3] (25° C., day 60), 100.20 ± 0.55%; in data set [3] (25° C., day 90), 100.17 ± 0.46%; in data set [3] (25° C., day 120), 100.07 ± 0.43%; in data set [3] (25° C., day 180), 100.03 ± 0.80%. The Residual amount in data set [3] (40° C., day 0) worked out at 100.43 ± 0.30%; in data set [3] (40° C., day 30), 100.28 ± 1.10%; in data set [3] (40° C., day 60), 100.14 ± 0.80%; in data set [3] (40° C., day 90) it was 100.10 ± 0.71%; in data set [3] (40° C., day 120) it was 99.81 ± 0.78%; in data set [3] (40° C., day 180) it was 99.78 ± 0.31%. The Residual amount came to 100.43 ± 0.30% in data set [3] (60° C., day 0); 99.60 ± 0.50% in data set [3] (60° C., day 30); 99.56 ± 0.85% in data set [3] (60° C., day 60); 99.27 ± 0.80% in data set [3] (60° C., day 90); 99.03 ± 0.90% in data set [3] (60° C., day 120); 98.87 ± 0.92% in data set [3] (60° C., day 180). Moreover, the Residual amount in data set [5] (in WFI 2 mg/ml, 25° C., day 7) is recorded as 103.92 ± 1.20%. In data set [4], this compound returned a solubility at 48 h of 590 mg/mL. The “stability profile in injectable preparation” value in data set [5] (in WFI, 25-60° C., 6 months) was “better than that of sodium- and lithium-salt compound”. The LD50 at 14 day in data set [1] was 200 to 250 mg/kg. The “Number of dead animals/Number of drug-treated animals” value in data set [2] (50 mg/kg single i.v. dose) is 0/6; in data set [2] (100 mg/kg single i.v. dose), 0/6; in data set [2] (150 mg/kg single i.v. dose), 0/6; in data set [2] (200 mg/kg single i.v. dose), 0/6; in data set [2] (250 mg/kg single i.v. dose) it was 3/3; in data set [2] (300 mg/kg single i.v. dose), 1/1. Also, the “Number of dead animals/Number of drug-treated animals” value in data set [2] (500 mg/kg single i.v. dose) is 2/2. Also, the “toxicity compared with free base” value in data set [2] (rats, i.v., Tables 7-9) is listed as “less toxicity than free base”.
